system: CCRF-CEM; experiment: Growth inhibition of human CCRF-CEM cells assessed as cell growth at 10 uM incubated for 48 hrs by sulforhodamine B assay relative to control; assay type: functional; conditions: read-out: Activity

Structure (SMILES) | growth at 10 µM [%]
CCCCn1c(=O)c(C2CNC(=O)c3ccccc3N2)cc2ccccc21 (stereo not drawn) | 110

system: A549; experiment: Growth inhibition of human A549/ATCC cells assessed as cell growth at 10 uM incubated for 48 hrs by sulforhodamine B assay relative to control; assay type: functional; conditions: A549, 48 h, read-out: Activity

Structure (SMILES) | growth at 10 µM [%]
CCCCn1c(=O)c(C2CNC(=O)c3ccccc3N2)cc2ccccc21 (stereo not drawn) | 97.1

system: HOP-62; experiment: Growth inhibition of human HOP62 cells assessed as cell growth at 10 uM incubated for 48 hrs by sulforhodamine B assay relative to control; assay type: functional; conditions: HOP-62, 48 h, read-out: Activity

Structure (SMILES) | growth at 10 µM [%]
CCCCn1c(=O)c(C2CNC(=O)c3ccccc3N2)cc2ccccc21 (stereo not drawn) | 91.8

system: HOP-92; experiment: Growth inhibition of human HOP92 cells assessed as cell growth at 10 uM incubated for 48 hrs by sulforhodamine B assay relative to control; assay type: functional; conditions: HOP-92, 48 h, read-out: Activity

Structure (SMILES) | growth at 10 µM [%]
CCCCn1c(=O)c(C2CNC(=O)c3ccccc3N2)cc2ccccc21 (stereo not drawn) | 95.2

system: NCI-H226; experiment: Growth inhibition of human NCI-H226 cells assessed as cell growth at 10 uM incubated for 48 hrs by sulforhodamine B assay relative to control; assay type: functional; conditions: NCI-H226, 48 h, read-out: Activity

Structure (SMILES) | growth at 10 µM [%]
CCCCn1c(=O)c(C2CNC(=O)c3ccccc3N2)cc2ccccc21 (stereo not drawn) | 111

system: NCI-H23; experiment: Growth inhibition of human NCI-H23 cells assessed as cell growth at 10 uM incubated for 48 hrs by sulforhodamine B assay relative to control; assay type: functional; conditions: NCI-H23, 48 h, read-out: Activity

Structure (SMILES) | growth at 10 µM [%]
CCCCn1c(=O)c(C2CNC(=O)c3ccccc3N2)cc2ccccc21 (stereo not drawn) | 95

system: NCI-H322M; experiment: Growth inhibition of human NCI-H322M cells assessed as cell growth at 10 uM incubated for 48 hrs by sulforhodamine B assay relative to control; assay type: functional; conditions: read-out: Activity

Structure (SMILES) | growth at 10 µM [%]
CCCCn1c(=O)c(C2CNC(=O)c3ccccc3N2)cc2ccccc21 (stereo not drawn) | 111

system: NCI-H522; experiment: Growth inhibition of human NCI-H522 cells assessed as cell growth at 10 uM incubated for 48 hrs by sulforhodamine B assay relative to control; assay type: functional; conditions: NCI-H522, 48 h, read-out: Activity

Structure (SMILES) | growth at 10 µM [%]
CCCCn1c(=O)c(C2CNC(=O)c3ccccc3N2)cc2ccccc21 (stereo not drawn) | 92.5

system: COLO 205; experiment: Growth inhibition of human COLO205 cells assessed as cell growth at 10 uM incubated for 48 hrs by sulforhodamine B assay relative to control; assay type: functional; conditions: COLO 205, 48 h, read-out: Activity

Structure (SMILES) | growth at 10 µM [%]
CCCCn1c(=O)c(C2CNC(=O)c3ccccc3N2)cc2ccccc21 (stereo not drawn) | 111

system: HCT-116; experiment: Growth inhibition of human HCT116 cells assessed as cell growth at 10 uM incubated for 48 hrs by sulforhodamine B assay relative to control; assay type: functional; conditions: HCT-116, 48 h, read-out: Activity

Structure (SMILES) | growth at 10 µM [%]
CCCCn1c(=O)c(C2CNC(=O)c3ccccc3N2)cc2ccccc21 (stereo not drawn) | 94.9

system: HT-29; experiment: Growth inhibition of human HT-29 cells assessed as cell growth at 10 uM incubated for 48 hrs by sulforhodamine B assay relative to control; assay type: functional; conditions: HT-29, 48 h, read-out: Activity

Structure (SMILES) | growth at 10 µM [%]
CCCCn1c(=O)c(C2CNC(=O)c3ccccc3N2)cc2ccccc21 (stereo not drawn) | 103

system: KM12; experiment: Growth inhibition of human KM12 cells assessed as cell growth at 10 uM incubated for 48 hrs by sulforhodamine B assay relative to control; assay type: functional; conditions: KM12, 48 h, read-out: Activity

Structure (SMILES) | growth at 10 µM [%]
CCCCn1c(=O)c(C2CNC(=O)c3ccccc3N2)cc2ccccc21 (stereo not drawn) | 101

system: SW-620; experiment: Growth inhibition of human SW620 cells assessed as cell growth at 10 uM incubated for 48 hrs by sulforhodamine B assay relative to control; assay type: functional; conditions: SW-620, 48 h, read-out: Activity

Structure (SMILES) | growth at 10 µM [%]
CCCCn1c(=O)c(C2CNC(=O)c3ccccc3N2)cc2ccccc21 (stereo not drawn) | 99.2

system: SF-539; experiment: Growth inhibition of human SF539 cells assessed as cell growth at 10 uM incubated for 48 hrs by sulforhodamine B assay relative to control; assay type: functional; conditions: SF-539, 48 h, read-out: Activity

Structure (SMILES) | growth at 10 µM [%]
CCCCn1c(=O)c(C2CNC(=O)c3ccccc3N2)cc2ccccc21 (stereo not drawn) | 89.9

system: SNB-19; experiment: Growth inhibition of human SNB19 cells assessed as cell growth at 10 uM incubated for 48 hrs by sulforhodamine B assay relative to control; assay type: functional; conditions: SNB-19, 48 h, read-out: Activity

Structure (SMILES) | growth at 10 µM [%]
CCCCn1c(=O)c(C2CNC(=O)c3ccccc3N2)cc2ccccc21 (stereo not drawn) | 91

system: U-251; experiment: Growth inhibition of human U251 cells assessed as cell growth at 10 uM incubated for 48 hrs by sulforhodamine B assay relative to control; assay type: functional; conditions: U-251, 48 h, read-out: Activity

Structure (SMILES) | growth at 10 µM [%]
CCCCn1c(=O)c(C2CNC(=O)c3ccccc3N2)cc2ccccc21 (stereo not drawn) | 98

system: Malme-3M; experiment: Growth inhibition of human MALME-3M cells assessed as cell growth at 10 uM incubated for 48 hrs by sulforhodamine B assay relative to control; assay type: functional; conditions: read-out: Activity

Structure (SMILES) | growth at 10 µM [%]
CCCCn1c(=O)c(C2CNC(=O)c3ccccc3N2)cc2ccccc21 (stereo not drawn) | 107

system: SK-MEL-28; experiment: Growth inhibition of human SK-MEL-28 cells assessed as cell growth at 10 uM incubated for 48 hrs by sulforhodamine B assay relative to control; assay type: functional; conditions: SK-MEL-28, 48 h, read-out: Activity

Structure (SMILES) | growth at 10 µM [%]
CCCCn1c(=O)c(C2CNC(=O)c3ccccc3N2)cc2ccccc21 (stereo not drawn) | 102

system: UACC-62; experiment: Growth inhibition of human UACC62 cells assessed as cell growth at 10 uM incubated for 48 hrs by sulforhodamine B assay relative to control; assay type: functional; conditions: UACC-62, 48 h, read-out: Activity

Structure (SMILES) | growth at 10 µM [%]
CCCCn1c(=O)c(C2CNC(=O)c3ccccc3N2)cc2ccccc21 (stereo not drawn) | 88.4

system: OVCAR-3; experiment: Growth inhibition of human OVCAR3 cells assessed as cell growth at 10 uM incubated for 48 hrs by sulforhodamine B assay relative to control; assay type: functional; conditions: OVCAR-3, 48 h, read-out: Activity

Structure (SMILES) | growth at 10 µM [%]
CCCCn1c(=O)c(C2CNC(=O)c3ccccc3N2)cc2ccccc21 (stereo not drawn) | 99.8

system: OVCAR-4; experiment: Growth inhibition of human OVCAR4 cells assessed as cell growth at 10 uM incubated for 48 hrs by sulforhodamine B assay relative to control; assay type: functional; conditions: OVCAR-4, 48 h, read-out: Activity

Structure (SMILES) | growth at 10 µM [%]
CCCCn1c(=O)c(C2CNC(=O)c3ccccc3N2)cc2ccccc21 (stereo not drawn) | 103

system: OVCAR-5; experiment: Growth inhibition of human OVCAR5 cells assessed as cell growth at 10 uM incubated for 48 hrs by sulforhodamine B assay relative to control; assay type: functional; conditions: OVCAR-5, 48 h, read-out: Activity

Structure (SMILES) | growth at 10 µM [%]
CCCCn1c(=O)c(C2CNC(=O)c3ccccc3N2)cc2ccccc21 (stereo not drawn) | 96.3

system: OVCAR-8; experiment: Growth inhibition of human OVCAR8 cells assessed as cell growth at 10 uM incubated for 48 hrs by sulforhodamine B assay relative to control; assay type: functional; conditions: OVCAR-8, 48 h, read-out: Activity

Structure (SMILES) | growth at 10 µM [%]
CCCCn1c(=O)c(C2CNC(=O)c3ccccc3N2)cc2ccccc21 (stereo not drawn) | 114

system: NCI/ADR-RES; experiment: Growth inhibition of human NCI/ADR-RES cells assessed as cell growth at 10 uM incubated for 48 hrs by sulforhodamine B assay relative to control; assay type: functional; conditions: read-out: Activity

Structure (SMILES) | growth at 10 µM [%]
CCCCn1c(=O)c(C2CNC(=O)c3ccccc3N2)cc2ccccc21 (stereo not drawn) | 100

system: SK-OV-3; experiment: Growth inhibition of human SKOV3 cells assessed as cell growth at 10 uM incubated for 48 hrs by sulforhodamine B assay relative to control; assay type: functional; conditions: SK-OV-3, 48 h, read-out: Activity

Structure (SMILES) | growth at 10 µM [%]
CCCCn1c(=O)c(C2CNC(=O)c3ccccc3N2)cc2ccccc21 (stereo not drawn) | 97.2

system: A498; experiment: Growth inhibition of human A498 cells assessed as cell growth at 10 uM incubated for 48 hrs by sulforhodamine B assay relative to control; assay type: functional; conditions: A498, 48 h, read-out: Activity

Structure (SMILES) | growth at 10 µM [%]
CCCCn1c(=O)c(C2CNC(=O)c3ccccc3N2)cc2ccccc21 (stereo not drawn) | 88.7

system: ACHN; experiment: Growth inhibition of human ACHN cells assessed as cell growth at 10 uM incubated for 48 hrs by sulforhodamine B assay relative to control; assay type: functional; conditions: read-out: Activity

Structure (SMILES) | growth at 10 µM [%]
CCCCn1c(=O)c(C2CNC(=O)c3ccccc3N2)cc2ccccc21 (stereo not drawn) | 98.2

system: RXF 393; experiment: Growth inhibition of human RXF393 cells assessed as cell growth at 10 uM incubated for 48 hrs by sulforhodamine B assay relative to control; assay type: functional; conditions: RXF 393, 48 h, read-out: Activity

Structure (SMILES) | growth at 10 µM [%]
CCCCn1c(=O)c(C2CNC(=O)c3ccccc3N2)cc2ccccc21 (stereo not drawn) | 111

system: SN12C; experiment: Growth inhibition of human SN12C cells assessed as cell growth at 10 uM incubated for 48 hrs by sulforhodamine B assay relative to control; assay type: functional; conditions: read-out: Activity

Structure (SMILES) | growth at 10 µM [%]
CCCCn1c(=O)c(C2CNC(=O)c3ccccc3N2)cc2ccccc21 (stereo not drawn) | 85.7

system: TK-10; experiment: Growth inhibition of human TK10 cells assessed as cell growth at 10 uM incubated for 48 hrs by sulforhodamine B assay relative to control; assay type: functional; conditions: TK-10, 48 h, read-out: Activity

Structure (SMILES) | growth at 10 µM [%]
CCCCn1c(=O)c(C2CNC(=O)c3ccccc3N2)cc2ccccc21 (stereo not drawn) | 109

system: UO-31; experiment: Growth inhibition of human UO31 cells assessed as cell growth at 10 uM incubated for 48 hrs by sulforhodamine B assay relative to control; assay type: functional; conditions: UO-31, 48 h, read-out: Activity

Structure (SMILES) | growth at 10 µM [%]
CCCCn1c(=O)c(C2CNC(=O)c3ccccc3N2)cc2ccccc21 (stereo not drawn) | 93.1

system: T47D; experiment: Growth inhibition of human T47D cells assessed as cell growth at 10 uM incubated for 48 hrs by sulforhodamine B assay relative to control; assay type: functional; conditions: read-out: Activity

Structure (SMILES) | growth at 10 µM [%]
CCCCn1c(=O)c(C2CNC(=O)c3ccccc3N2)cc2ccccc21 (stereo not drawn) | 93.7

system: MDA-MB-468; experiment: Growth inhibition of human MDA-MB-468 cells assessed as cell growth at 10 uM incubated for 48 hrs by sulforhodamine B assay relative to control; assay type: functional; conditions: MDA-MB-468, 48 h, read-out: Activity

Structure (SMILES) | growth at 10 µM [%]
CCCCn1c(=O)c(C2CNC(=O)c3ccccc3N2)cc2ccccc21 (stereo not drawn) | 107
